Measurements taken from patent US9782394B2, “Inhibitors for ERG oncogene positive cancers” (The Henry M. Jackson Foundation for the Advancement of …, priority 2014, dated 2017).

Tests used:
[1] = tested on: VCaP cells; test: Cell growth inhibition, VCaP; assay type: cell-based; conditions: for inhibition of cell growth: VCaP cells in culture, 1 μM and 10 μM
Protocol: (§1) 48 hours following plating of cells, the appropriate test compound is added to each well of the tissue culture dish at a predetermined concentration. The medium was replenished every 24 hours with fresh growth medium containing the same concentration of the same test compound for indicated period of the cell growth inhibition assay. Percent cell growth inhibition was calculated using a hemocytometer for estimating cell density in each of the test wells of the tissue culture dish and trypan blue dye exclusion microscopy and photography to estimate the fraction of viable cells in each test well.
(§2) The protein inhibition studies described above indicate that ERGi-USU is a selective inhibitor of ERG expression. To investigate whether ERGi-USU selectively arrested the growth of ERG positive cancer cells without arresting the growth of ERG negative cancer cells, a cell growth inhibition study was carried out using the following cancer and normal cell lines: ERG positive cancer cells (VCaP, COLO320, MOLT-4 and KG-1) cancer cells, ERG negative cancer cells (LNCaP, MDA PCa2b and LAPC4) cancer cells, normal prostate RWPE-1 and BPH-1 cells and normal endothelial HUVEC cells. Each cell line was cultured to achieve cells in logarithmic growth and these cells were then plated in 10 cm wells of a tissue culture dishes at a cell density of 2×10^6 cells per well. The plated cells were contacted with 0, 0.1, 0.5, 1.0, 5.0, and 10 μM concentrations of ERGi-USU for a period of 2, 4, 6 and 8 days. At the end of each time period, cells are recovered from the test plate, washed and the cell density and viability determined using a hemocytometer and trypan blue dye staining method. Cell growth inhibition was expressed as a graph correlating cell number to the concentration of ERGi-USU.
(§3) FIG. 4 illustrates the results of cell growth inhibition studies that were used to calculate the concentration of ERGi-USU needed for inhibiting 50% of the growth (IC50) of the cells mentioned above. As illustrated by this figure, ERGi-USU was a potent inhibitor of the growth of ERG positive cancer cells in culture.

[2] = tested on: LNCaP cells; test: Cell growth inhibition, LNCaP; assay type: cell-based; conditions: for inhibition of cell growth: ERG negative LNCaP cells, 1 μM and 10 μM
Protocol: as §1, §2, §3

[3] = molecular target: T1, ERG protein (Homo sapiens, UniProt P11308); test: In-cell Western primary screen for inhibitors of ERG expression in VCaP cells; assay type: cell-based; conditions: single 1 μM dose, 48 hours, duplicate screen
T1 construct: contacting a TMPRSS2-ERG fusion positive prostate cancer (VCaP) cell line with a fixed concentration of each compound; host or cells: VCaP
T1 sequence (P11308 33-479 limits assumed): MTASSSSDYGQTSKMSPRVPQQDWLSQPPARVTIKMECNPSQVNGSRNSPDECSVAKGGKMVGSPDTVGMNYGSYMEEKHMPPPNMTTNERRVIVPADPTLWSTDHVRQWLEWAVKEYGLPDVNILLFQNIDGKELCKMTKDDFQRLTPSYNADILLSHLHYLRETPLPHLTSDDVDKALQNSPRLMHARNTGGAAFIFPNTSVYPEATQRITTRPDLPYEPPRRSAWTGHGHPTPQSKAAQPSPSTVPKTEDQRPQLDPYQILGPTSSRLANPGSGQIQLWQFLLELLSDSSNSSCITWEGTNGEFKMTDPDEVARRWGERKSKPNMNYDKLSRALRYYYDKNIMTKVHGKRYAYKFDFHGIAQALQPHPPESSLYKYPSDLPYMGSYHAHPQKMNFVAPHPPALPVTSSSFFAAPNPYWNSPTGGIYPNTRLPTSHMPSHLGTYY
Description: To identify ERG specific small molecule inhibitors, the present inventors screened a library of small molecule compounds, by contacting a TMPRSS2-ERG fusion positive prostate cancer (VCaP) cell line with a fixed concentration of each compound in the small molecule library. ERG protein expression was monitored using an In-cell Western blot assay (LI-COR Biosciences, Lincoln, Nebr.), using a highly specific ERG monoclonal antibody (CPDR ERG-mAb; 9FY) for detection. See Furusato et al., Prostate Cancer Prostatic Dis., 13:228-372 (2010); Mohamed et al., J. Cancer, 1:197-208, (2010); Miettinen et al., Am. J. Surg Pathol., 35:432-41 (2011); and U.S. patent publication No. 2012/0135018A1.
The TMPRSS2-ERG fusion positive prostate cancer cell line, VCaP (ATCC), was used to identify small molecule inhibitors of ERG expression. […] The inhibition of ERG expression was evaluated by an In-cell Western blot assay (LI-COR Biosciences, Lincoln, Nebr.) using the ERG specific CPDR ERG-MAb as further described below. […]
Inhibition of ERG expression by the test compounds was determined by an In-cell Western assay (LI-COR Biosciences, Lincoln, Nebr.). […]
The tissue culture plates were imaged on a Li-Cor Odyssey Infrared Imaging System and infrared signals were measured to provide values for ERG expression and cell number via DNA staining. […]

[4] = tested on: ERG mRNA; test: Quantitative RT-PCR analysis of ERG transcripts in VCaP cells; assay type: cell-based, human; conditions: 1 μM, 24 hours
Protocol: The ERG inhibitors identified by the primary screen were used in a quantitative RT-PCR assay to evaluate their ability to inhibit ERG mRNA expression. Briefly, VCaP cells were treated at a concentration of 1 μM with each of the ten compounds for 24 hours. Following incubation with the test compounds the cells are lysed and the total RNA isolated. 200 ng of the total RNA was used for analysis of ERG transcripts by qRT-PCR using a pair of ERG primers specific for the coding sequence of tERG for analysis.

[5] = tested on: AR; test: Western blot analysis of AR expression in prostate cancer cells; assay type: cell-based; conditions: 0.1-10 μM
Protocol: (§4) Cultured cells were treated at specific dosages with each of the test ERG inhibitors. Following incubation of the treated cells for indicated time period, cells were lysed using Mammalian Protein Extraction Reagent (M-PER; Pierce, Rockford, Ill.) containing a protease inhibitor cocktail and phosphatase inhibitor cocktails I & III (Sigma, St Louis, Mo.). Cell lysates containing 50 μg of total protein were electrophoresed through 4-12% Bis-Tris Gel (Invitrogen, Carlsbad, Calif.) and the cellular proteins were transferred to PVDF membrane (Invitrogen, Carlsbad, Calif.). Membranes were incubated at 4° C. for 12 hours with primary antibodies for AR, PSA, GAPDH, α-Tubulin, apoptosis markers and cell cycle regulators. Following exposure to primary antibodies, the membranes were washed with buffer (three times, 5 minutes each at room temperature) followed by incubation with relevant secondary antibodies for 1 hour at 24° C. Finally, the membranes were washed with buffer and developed using the ECL Western blot detection reagent (GE Health Care, Buckinghamshire, UK).
(§5) Briefly, ERG positive VCaP cells and ERG negative LNCaP, MDA PCa2b and LAPC4 cells in logarithmic growth were plated in 10 cm tissue culture dish at a cell density of 2×10^6 cells per dish. The plated cells were contacted with 0, 0.1, 0.5, 1.0, 5.0, and 10 μM concentrations of ERGi-USU for a period of 48 hours. Cells from each dish were then processed for Western blot analysis and alterations in the expression of ERG protein were monitored.

[6] = tested on: PSA; test: Western blot analysis of PSA expression in prostate cancer cells; assay type: cell-based; conditions: 0.1-10 μM
Protocol: as §4, §5

[7] = tested on: COLO320 cells; test: Cell growth inhibition, COLO320; assay type: cell-based; conditions: Homo sapiens, COLO 320; COLO320, ERG positive colon adenocarcinoma; read-out: Cell growth inhibition (ERGi-USU: IC50)
Protocol: as §1
(§6) The protein inhibition studies described above indicate that ERGi-USU is a selective inhibitor of ERG expression. […] At the end of each time period, cells are recovered from the test plate, washed and the cell density and viability determined using a hemocytometer and trypan blue dye staining method. Cell growth inhibition was expressed as a graph correlating cell number to the concentration of ERGi-USU. […]

[8] = tested on: MOLT-4 cells; test: Cell growth inhibition, MOLT-4; assay type: cell-based; conditions: Homo sapiens; MOLT-4, ERG positive acute lymphoblastic leukemia; read-out: Cell growth inhibition (ERGi-USU: IC50)
Protocol: as §1, §6

[9] = tested on: KG-1 cells; test: Cell growth inhibition, KG-1; assay type: cell-based; conditions: Homo sapiens; KG-1, ERG positive myeloid leukemia; read-out: Cell growth inhibition (ERGi-USU: IC50)
Protocol: as §1, §6

[10] = tested on: MDA PCa2b cells; test: Cell growth inhibition, MDA PCa2b; assay type: cell-based; conditions: MDA-PCa-2b, ERG negative prostate cancer, read-out: Cell growth inhibition (ERGi-USU: IC50)
Protocol: as §1, §6

[11] = tested on: LAPC4 cells; test: Cell growth inhibition, LAPC4; assay type: cell-based; conditions: Homo sapiens; LAPC4, ERG negative metastatic prostate cancer; read-out: Cell growth inhibition (ERGi-USU: IC50)
Protocol: as §1, §6

[12] = tested on: RWPE-1 cells; test: Cell growth inhibition, RWPE-1; assay type: cell-based; conditions: Homo sapiens; RWPE-1, normal prostate; read-out: Cell growth inhibition (ERGi-USU: IC50)
Protocol: as §1, §6

[13] = tested on: BPH-1 cells; test: Cell growth inhibition, BPH-1; assay type: cell-based; conditions: Homo sapiens; BPH-1, normal prostate; read-out: Cell growth inhibition (ERGi-USU: IC50)
Protocol: as §1, §6

[14] = tested on: HUVEC cells; test: Cell growth inhibition, HUVEC; assay type: cell-based; conditions: Homo sapiens, ERG positive normal endothelial, read-out: Cell growth inhibition (ERGi-USU: IC50)
Protocol: as §1, §6

[15] = tested on: VCaP xenograft tumors; test: VCaP xenograft tumor growth inhibition in nude mice; assay type: in vivo; conditions: male nude mice, 150 mg/kg intraperitoneally 3 times per week, versus vehicle control and 100 mg/kg
Protocol: Male athymic nude mice 6-8 weeks old and weighing 27 to 30 g were purchased from Charles River Laboratories. ERG harboring prostate cancer cells (VCaP) were trypsinized and washed twice with ice-cold PBS, and resuspended in ice-cold 50% matrigel in serum-free DMEM medium. A total of 4×10^6 cells/0.1 ml/mouse were subcutaneously injected into lower right dorsal flank of the mice. Prior to injection, mice were anesthetized with inhalation anesthesia (isoflurane). Tumor growth was monitored weekly after injection. Three weeks later when tumors were palpable mice were randomly separated into 2 experimental groups and one control group of 7 mice in each group. In the treatment groups mice were injected intraperitoneally (I.P) with 100 mg/kg of ERGi-USU or 150 mg/kg of ERGi-USU while the control group were injected with vehicle (1:1 [v/v], DMSO/PEG300) only. Growth in tumor volume was recorded weekly by digital caliper measurements and tumor volumes calculated using the ½ (L×W^2) formula, where L=length of tumor and W=width. Tumor volumes were compared between treated and control groups with repeated measurements and statistical significance of the results between the groups computed using students t-test and p values calculated.
Male nude mice were injected with about 4×10^6 VCaP cells and tumor growth was monitored. […] Tumor growth was monitored weekly.

[16] = AR positive/ERG negative LNCaP, MDA PCa2b and LAPC4 cells, 48 hours

Oc1ccc2ccccc2c1/N=N/c1ccccn1 [ED-1]
inhibition of cell growth [1]: inhibited the growth of VCaP prostate cancer cells
inhibition of cell growth [2]: no measurable inhibitory effect

Nc1c(O)ccc2ccccc12 [ED-2]
inhibition of cell growth [1]: inhibited the growth of VCaP prostate cancer cells
inhibition of cell growth [2]: no measurable inhibitory effect

NC(c1ccccc1)c1c(O)ccc2ccccc12 (stereo not drawn) [ED-3]
inhibition of cell growth [1]: inhibited the growth of VCaP prostate cancer cells
inhibition of cell growth [2]: no measurable inhibitory effect

Oc1ccc2ccccc2c1/N=N/c1nccs1 [ERGi-USU, 1-(thiazol-2-yldiazenyl)naphthalene-2-ol]
inhibition of ERG protein expression (In-cell Western, normalized by cell number) [3]: inhibitors of ERG protein expression
inhibition of ERG mRNA expression (qRT-PCR) [4]: inhibitors of ERG-mRNA expression
inhibition of AR protein expression [5, 16]: does not inhibit
inhibition of AR protein expression ([5]; VCaP cells): inhibits expression of PSA, and AR proteins
inhibition of PSA protein expression [6, 16]: does not inhibit
inhibition of PSA protein expression ([6]; VCaP cells): inhibits expression of PSA, and AR proteins
IC50 ([1]; Homo sapiens, VCaP, ERG positive metastatic prostate cancer, read-out: Cell growth inhibition (ERGi-USU: IC50)): 300 nM
IC50 [7]: 300 nM
IC50 [8]: 50 nM
IC50 [9]: 200 nM
IC50 ([2]; Homo sapiens, LNCaP, ERG negative metastatic prostate cancer, read-out: Cell growth inhibition (ERGi-USU: IC50)): > 10000 nM
IC50 [10]: > 10000 nM
IC50 [11]: > 10000 nM
IC50 [12]: > 10000 nM
IC50 [13]: > 10000 nM
IC50 [14]: > 10000 nM
tumor volume [15]: exhibited the smallest volumes

Cc1[nH]ccc2c1[nH]c1cc(=O)ccc12 [NSC72292]
inhibition of ERG mRNA expression (qRT-PCR) [4]: inhibitors of ERG-mRNA expression

Oc1ccc2ccccc2c1/N=N/c1nccs1 [NSC99629, reference compound]
inhibition of ERG mRNA expression (qRT-PCR) [4]: inhibitors of ERG-mRNA expression
inhibition of AR protein expression ([5]; VCaP cells): No appreciable inhibition
inhibition of PSA protein expression ([6]; VCaP cells): No appreciable inhibition
